Read-outs that look alike come from different tables or passages of the source.
How the values were obtained:
[1] = test system: sulprostone-induced allodynic mice; test: Sulprostone-induced allodynia mouse model, paint brush stimulation pain score
[2] = test system: intraocular pressure of male New Zealand rabbits; test: Normotensive intraocular pressure in rabbits after topical instillation (pneumatonometer); type: in vivo, rabbit
Protocol: Male New Zealand rabbits are used to evaluate drug effects on normotensive IOP measurements. The rabbits are carefully handled so as to minimize excitement. They should be picked up by the nape of the neck, with their hindlegs supported by the other hand. After removing the rabbit from its cage, approximately 25 ul of dilute OphtheticR (0.05%) topical anesthesia is administered to each eye. An initial IOP determination is made in both eyes. Rabbits with 3 mmHg or greater difference in IOP between right and left eyes are replaced at this time.
Immediately following the time zero (T=0) reading in both eyes, one eye of each experimental rabbit is instilled with an ophthalmic formulation of 0.1% (w/w) brimonidine tartrate onto the cornea of the randomly selected test eye. […] The other eye is given the vehicle containing no drug. The ophthalmic formulations comprise 50 ppm Purite®(stabilized chlorine dioxide), 0.5% carboxymethylcellulose, 0.6% (w/w) borate buffer (pH 7.7) and small amounts of salts (NaCl, KCl, CaCl2, MgCl2). Intraocular pressure of both treated (ipsalateral)and untreated (contralateral) eyes is measured at the indicated time intervals for seven hours. Pressure readings utilize a Model 30 Classic™ Pneumatonometer as the measuring and recording instrument. It measures intraocular pressure (IOP) non-invasively through applanation tonometry.

[3] = test system: Chung model of allodynic rats; details: for analgesia (reversal of tactile allodynia): 30 minutes after administration
Text: A model for chronic pain (in particular peripheral neuropathy) involves the surgical ligation of the L5 (and optionally the L6) spinal nerves on one side in experimental animals. Rats recovering from the surgery gain weight and display a level of general activity similar to that of normal rats. However, these rats develop abnormalities of the foot, wherein the hindpaw is moderately everted and the toes are held together. More importantly, the hindpaw on the side affected by the surgery appears to become sensitive to pain from low-threshold mechanical stimuli, such as that producing a faint sensation of touch in a human, within about 1 week following surgery. This sensitivity to normally non-painful touch is called “tactile allodynia” and lasts for at least two months. The response includes lifting the affected hindpaw to escape from the stimulus, licking the paw and holding it in the air for many seconds. None of these responses is normally seen in the control group.
Rats are anesthetized before surgery. The surgical site is shaved and prepared either with betadine or novacaine. Incision is made from the thoracic vertebra X111 down toward the sacrum. Muscle tissue is separated from the spinal vertebra (left side) at the L4-S2 levels. The L6 vertebra is located and the transverse process is carefully removed with a small rongeur to expose the L4-L6 spinal nerves. The L5 and L6 spinal nerves are isolated and tightly ligated with 6-0 silk thread. The same procedure is done on the right side as a control, except no ligation of the spinal nerves is performed.
A complete hemostasis is confirmed, then the wounds are sutured. A small amount of antibiotic ointment is applied to the incised area, and the rat is transferred to the recovery plastic cage under a regulated heat-temperature lamp. […]
In the Chung rat model, tactile allodynia is measured prior to and 30 minutes after drug administration using von Frey hairs that are a series of fine hairs with incremental differences in stiffness. […]

[4] = test system: male Sprague-Dawley rats; details: for sedation: graded 30 minutes after administration
Protocol: To test sedation, six male Sprague-Dawley rats are given various doses of a clonidine intrathecal injection. Sedation is graded 30 minutes following administration of the drug by monitoring locomotor skills as follows. Rats are placed in a dark covered chamber and a digicom analyzer (Omnitech Electronic) quantitates their exploratory behavior for a five-minute period. The machine records each time the rat interrupts an array of 32 photoelectric beams in the X and Y orientation, and quantifies the difference in behavior as compared to control animals given saline instead of clonidine.

`CS(=O)(=O)NC(=O)CCC/C=C\C[C@H]1C(=O)C[C@@H](O)[C@@H]1/C=C/[C@@H](O)COc1ccccc1` [sulprostone] was tested, and the pain score ([1]; sulprostone 200 ng intrathecal alone, 16-point scale) was 12-13.
For `Brc1c(NC2=NCCN2)ccc2nccnc12` [brimonidine], the intraocular pressure ([2]; 0.1% brimonidine alone (FIG. 4B)) was “pronounced increase in intraocular pressure within the first 30 minutes, followed by a lowering of intraocular pressure thereafter”, the “intraocular pressure, difference from brimonidine alone” value ([2]; 0.1% brimonidine and 0.001% prazosin (FIG. 4C)) was “Little difference” and the initial intraocular pressure ([2]; 0.1% brimonidine and 0.003% prazosine (FIG. 4D)) was “only a very small increase in initial intraocular pressure”.
For `CN(C)CCC=C1c2ccccc2CCc2ccccc21` [amitriplylene, amitriptylene], the “reduction in the dosage necessary to achieve maximal analgesia” value ([1]; amitriptylene intrathecal with 30 ug/kg IP 5-methylurapadil versus with saline) was “approximately three”.
`COc1cc2nc(N3CCN(C(=O)c4ccco4)CC3)nc(N)c2cc1OC` [prazosin] was tested, and the “intraocular pressure of treated eye compared to untreated eye” value ([2]; 35 microliters 0.003% prazosin alone (FIG. 4A)) was “small initial drop in intraocular pressure compared to the untreated eye, followed by a gradual increase in pressure”.
With `Clc1cccc(Cl)c1N=C1NCCN1` [clonidine] the “analgesia (reversal of tactile allodynia)” value ([3]; intrathecal dose of 0.1 μg) was “no analgesia”, the “analgesia (reversal of tactile allodynia)” value ([3]; intrathecal dose of 1.0 μg) was “maximal analgesia” and the “analgesic activity, dose-dependent” value ([3]; rats, intrathecal) was “analgesic”. The “shift of the effective analgesic dose lower versus clonidine alone” value ([1]; 5-methyl urapidil 30 μg/kg intraperitoneal 5 minutes before clonidine) was 10 fold, the pain score ([1]; clonidine 0.03 microgram intrathecal, prazosin given 15 minutes before) was 13.3±0.9 and the analgesia ([1]; clonidine 0.1 microgram intrathecal in the absence of prazosin) was “not analgesic”. The pain score ([1]; clonidine 0.1 microgram intrathecal, prazosin given 15 minutes before) was 4.8±0.8, the pain score ([1]; clonidine 0.4 microgram intrathecal, prazosin given 15 minutes before) was 4.8±0.6 and the “analgesia compared with intraperitoneal injection of the alpha 1 antagonist” value ([1]; clonidine (various doses) and 5-methylurapidil 1 microgram coadministered intrathecally) was “substantially similar”. The “therapeutic window between pain and sedation” value ([1]; clonidine alone) was 3-10 fold, the “therapeutic window between pain and sedation” value ([1]; clonidine co-administered with alpha 1 antagonist (5-methyl urapidil 30 μg/kg i.p.)) was 30-100 fold and the “decrease in the EC50 for clonidine analgesia versus i.t. clonidine alone” value ([1]; coadministration of prazosin 100 ng/kg i.p.) was “four”. For the same compound, the “analgesic activity, dose-dependent” value ([1]; mice, intrathecal) was “analgesic”, the sedation ([4]; intrathecal dose of 3.0 μg) was “mildly sedating” and the sedation ([4]; intrathecal dose of 10 μg) was “maximal sedation”. The “separation between analgesia and sedation” value ([4]; rats, intrathecal clonidine alone) was 3-10 fold.

Reference: patent US20050058696A1, “Methods and compositions for the treatment of pain and other alpha 2 adrenergic-mediated conditions” (Allergan, Inc., priority 2003, published 2005)
